Source: patent publication US10196374B2 (AstraZeneca AB, priority 2014, dated 2019)

Tests used:
[1] = target: T1, human glucocorticoid receptor (GR) (Homo sapiens (Human), UniProt P04150); test: GRE Agonist Assay (ChagoK1 18:7:2 s4/GRE MMTV-GRE-LacZ reporter cell line); format: cell-based; details: for Emax at 1 µM: ChaGo-K-1, relative to full agonist effect of dexamethasone, read-out: TA agonist Observed max Effect at 1 μM (%); for TA agonist pEC50: transactivation in agonist mode, ChagoK1 GRE-LacZ reporter cells, 24 hours
From the text: GRE Agonist Assay A reporter cell line (ChagoK1 18:7:2 s4/GRE) was established by stable transfection of the human bronchogenic carcinoma cell line, ChaGo K1 (ATCC: HTB 168) with a MMTV-GRE-LacZ reporter construct. The generated cell line allows for identification of compounds showing agonist activity at the human glucocorticoid receptor (GR) via induction of LacZ gene expression. Ligand-activated GR binds to the Glucocorticoid Response Element (GRE) in the promoter of the LacZ gene and transcription is initiated. The resulting beta-galactosidase activity is measured through a colour reaction (change in absorbance). Cryo-preserved ChagoK1 18:7:2 s4/GRE cells were suspended in RPMI medium with 10% FBS, 1% NEAA and 1% sodium pyruvate, and seeded as 50000 cells/200 ul/well in 96-well plates and cultured at 37° C. with 5% CO2 and 95% humidity for 24 hours. 1 μl compound was added at different concentrations to the cells and incubated for another 24 hours. […] The reaction was then terminated by addition of 100 μl stop solution (300 mM glycine, 15 mM EDTA, pH 11.3, adjusted with NaOH). […]) Where A=min Y, B=max Y, C=log EC50 and D=Slope factor

[2] = target: T1, human glucocorticoid receptor (GR); test: GRE Antagonist Assay (ChagoK1 18:7:2 s4/GRE reporter cells pre-stimulated with dexamethasone); format: cell-based; details: for Emax at 1 µM: ChaGo-K-1, relative to full antagonist effect of Mifepristone (RU486), read-out: TA antagonist Observed max Effect at 1 μM (%); for TA antagonist pIC50: transactivation in antagonist mode, pre-stimulated with dexamethasone 70 nM
From the text: GRE Antagonist Assay A reporter cell line (ChagoK1 18:7:2 s4/GRE) was established by stable transfection of the human bronchogenic carcinoma celline, ChaGo K1 (ATCC: HTB 168) with a MMTV-GRE-LacZ reporter construct. The generated cell line allows for identification of compounds showing antagonist activity at the human glucocorticoid receptor (GR) via reduction of LacZ gene expression. Dexamethasone-activated GR binds to the Glucocorticoid Response Element (GRE) in the promoter of the LacZ gene and transcription is initiated. Antagonistic properties of compounds are assessed as beta-galactosidase intensity reduction from pre-stimulation with dexamethasone through a colour reaction (change in absorbance). Cryo-preserved ChagoK1 18:7:2 s4/GRE cells were suspended in RPMI medium with 10% FBS, 1% NEAA and 1% sodium pyruvate, and seeded as 50000 cells/200 ul/well in 96-well plates and cultured at 37° C. with 5% CO2 and 95% humidity for 24 hr. […] The reaction was then terminated by addition of 100 μl stop solution (300 mM glycine, 15 mM EDTA, pH 11.3, adjusted with NaOH). The plates were measured at 420 nm for absorbance in a SpectraMax reader (Molecular Device). […]) Where A=min Y, B=max Y, C=log IC50 and D=Slope factor

T1 sequence (P04150 whole entry): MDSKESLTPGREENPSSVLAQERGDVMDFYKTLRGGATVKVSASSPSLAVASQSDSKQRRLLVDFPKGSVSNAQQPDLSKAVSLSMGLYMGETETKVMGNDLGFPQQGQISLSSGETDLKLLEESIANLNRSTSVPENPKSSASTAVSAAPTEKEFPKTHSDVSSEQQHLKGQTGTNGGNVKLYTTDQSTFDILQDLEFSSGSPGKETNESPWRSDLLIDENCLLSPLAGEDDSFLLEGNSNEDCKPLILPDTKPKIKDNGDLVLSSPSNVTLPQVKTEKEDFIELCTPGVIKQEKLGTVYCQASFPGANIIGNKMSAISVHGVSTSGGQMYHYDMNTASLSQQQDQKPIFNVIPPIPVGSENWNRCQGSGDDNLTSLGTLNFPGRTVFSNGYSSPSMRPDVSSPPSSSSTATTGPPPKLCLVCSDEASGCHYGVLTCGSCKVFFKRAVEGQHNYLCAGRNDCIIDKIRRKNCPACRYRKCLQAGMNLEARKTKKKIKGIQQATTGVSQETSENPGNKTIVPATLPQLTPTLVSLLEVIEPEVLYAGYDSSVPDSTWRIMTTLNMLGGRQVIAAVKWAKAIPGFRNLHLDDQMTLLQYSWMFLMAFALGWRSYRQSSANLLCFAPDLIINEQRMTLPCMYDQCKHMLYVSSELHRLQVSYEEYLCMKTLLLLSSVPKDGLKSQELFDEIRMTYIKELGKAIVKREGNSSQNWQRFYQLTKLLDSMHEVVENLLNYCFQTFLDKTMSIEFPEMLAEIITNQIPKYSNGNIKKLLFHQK

Row | Emax at 1 µM [1] | Emax at 1 µM [2] | TA agonist pEC50 [1] | TA antagonist pIC50 [2] | Compound
1 | 25% | 67% | – | – | CC(C)[C@H](NC(=O)C(F)(F)F)[C@H](Oc1ccc2c(cnn2-c2ccc(=O)n(C)c2)c1)c1ccccc1 [Example 2, 2,2,2-trifluoro-N-[(1R,2S)-3-methyl-1-{[1-(1-methyl-6-oxo-1,6-dihydropyridin-3-yl)-1H-indazol-5-yl]oxy}-1-phenylbutan-2-yl]acetamide]
2 | 42% | 51% | 8.7 | 8.8 | CC(C)[C@H](NC(=O)C(F)(F)F)[C@H](Oc1ccc2c(cnn2-c2ccc(=O)n(C)c2)c1)c1cc(F)cc(F)c1 [Example 4]
3 | 28% | 72% | 8.6 | 6.7 | CC(C)[C@H](NC(=O)C(C)(F)F)[C@H](Oc1ccc2c(cnn2-c2ccc(=O)n(C)c2)c1)c1cccc(Cl)c1 [Example 5, N-[(1R,2S)-1-(3-chlorophenyl)-3-methyl-1-{[1-(1-methyl-6-oxo-1,6-dihydropyridin-3-yl)-1H-indazol-5-yl]oxy}butan-2-yl]-2,2-difluoropropanamide]
4 | 46% | 54% | 8.1 | 7.1 | CC(C)[C@H](NC(=O)C(C)(F)F)[C@H](Oc1ccc2c(cnn2-c2ccc(=O)n(C)c2)c1)c1ccc(Cl)cc1 [Example 7, N-[(1R,2S)-1-(4-chlorophenyl)-3-methyl-1-{[1-(1-methyl-6-oxo-1,6-dihydropyridin-3-yl)-1H-indazol-5-yl]oxy}butan-2-yl]-2,2-difluoropropanamide]
5 | 36% | 56% | 7.7 | 6.8 | CC(C)[C@H](NC(=O)C(C)(F)F)[C@H](Oc1ccc2c(cnn2-c2ccc(=O)n(C)c2)c1)c1cc(Cl)cc(Cl)c1 [Example 8, N-[(1R,2S)-1-(3,5-dichlorophenyl)-3-methyl-1-{[1-(1-methyl-6-oxo-1,6-dihydropyridin-3-yl)-1H-indazol-5-yl]oxy}butan-2-yl]-2,2-difluoropropanamide]
6 | 22% | 63% | 7.7 | 6.9 | CC(C)[C@H](NC(=O)C(C)(F)F)[C@H](Oc1ccc2c(cnn2-c2ccc(=O)n(C)c2)c1)c1ccc(OC(F)(F)F)cc1 [Example 9, 2,2-difluoro-N-{(1R,2S)-3-methyl-1-{[1-(1-methyl-6-oxo-1,6-dihydropyridin-3-yl)-1H-indazol-5-yl]oxy}-1-[4-(trifluoromethoxy)phenyl]butan-2-yl}propanamide]
7 | 40% | 51% | 8.1 | 7.0 | CC(C)[C@H](NC(=O)C(C)(F)F)[C@H](Oc1ccc2c(cnn2-c2ccc(=O)n(C)c2)c1)c1ccc(C(F)(F)F)cc1 [Example 10, 2,2-difluoro-N-{(1R,2S)-3-methyl-1-{[1-(1-methyl-6-oxo-1,6-dihydropyridin-3-yl)-1H-indazol-5-yl]oxy}-1-[4-(trifluoromethyl)phenyl]butan-2-yl}propanamide]
8 | 28% | 62% | 8.1 | 6.7 | CC(C)[C@H](NC(=O)C(C)(F)F)[C@H](Oc1ccc2c(cnn2-c2ccc(=O)n(C)c2)c1)c1ccc(OC(F)F)cc1 [Example 11, N-[(1R,2S)-1-[4-(difluoromethoxy)phenyl]-3-methyl-1-{[1-(1-methyl-6-oxo-1,6-dihydropyridin-3-yl)-1H-indazol-5-yl]oxy}butan-2-yl]-2,2-difluoropropanamide]
9 | 46% | 48% | 8.4 | 7.1 | Cc1cc2c(cnn2-c2ccc(=O)n(C)c2)cc1O[C@H](c1ccccc1)[C@@H](NC(=O)C(C)(F)F)C(C)C [Example 12, 2,2-difluoro-N-[(1R,2S)-3-methyl-1-{[6-methyl-1-(1-methyl-6-oxo-1,6-dihydropyridin-3-yl)-1H-indazol-5-yl]oxy}-1-phenylbutan-2-yl]propanamide]
10 | 28% | 72% | 8.3 | 6.9 | CC(C)[C@H](NC(=O)C(F)(F)F)[C@H](Oc1ccc2c(cnn2-c2ccc(=O)n(C)c2)c1)c1ccc(Cl)cc1 [Example 13, N-[(1R,2S)-1-(4-chlorophenyl)-3-methyl-1-{[1-(1-methyl-6-oxo-1,6-dihydropyridin-3-yl)-1H-indazol-5-yl]oxy}butan-2-yl]-2,2,2-trifluoroacetamide]
11 | 20% | 65% | 7.7 | 6.9 | CC(C)[C@H](NC(=O)C(F)(F)F)[C@H](Oc1ccc2c(cnn2-c2ccc(=O)n(C)c2)c1)c1cc(Cl)cc(Cl)c1 [Example 14, N-[(1R,2S)-1-(3,5-dichlorophenyl)-3-methyl-1-{[1-(1-methyl-6-oxo-1,6-dihydropyridin-3-yl)-1H-indazol-5-yl]oxy}butan-2-yl]-2,2,2-trifluoroacetamide]
12 | 27% | 64% | 8.2 | 7.3 | CC(C)[C@H](NC(=O)C(F)(F)F)[C@H](Oc1ccc2c(cnn2-c2ccc(=O)n(C)c2)c1)c1ccc(C(F)(F)F)cc1 [Example 15, 2,2,2-trifluoro-N-{(1R,2S)-3-methyl-1-{[1-(1-methyl-6-oxo-1,6-dihydropyridin-3-yl)-1H-indazol-5-yl]oxy}-1-[4-(trifluoromethyl)phenyl]butan-2-yl}acetamide]
13 | 20% | 75% | 8.0 | 6.6 | CC(C)[C@H](NC(=O)C(F)(F)F)[C@H](Oc1ccc2c(cnn2-c2ccc(=O)n(C)c2)c1)c1ccc(OC(F)F)cc1 [Example 16, N-[(1R,2S)-1-[4-(difluoromethoxy)phenyl]-3-methyl-1-{[1-(1-methyl-6-oxo-1,6-dihydropyridin-3-yl)-1H-indazol-5-yl]oxy}butan-2-yl]-2,2,2-trifluoroacetamide]
14 | 32% | 79% | 8.4 | 7.4 | CC(C)[C@H](NC(=O)C(F)(F)F)[C@H](Oc1ccc2c(cnn2-c2ccc(=O)n(C)c2)c1)c1ccc(Cl)c(F)c1 [Example 17, N-[(1R,2S)-1-(4-chloro-3-fluorophenyl)-3-methyl-1-{[1-(1-methyl-6-oxo-1,6-dihydropyridin-3-yl)-1H-indazol-5-yl]oxy}butan-2-yl]-2,2,2-trifluoroacetamide]
15 | 32% | 61% | 8.8 | 7.6 | CC(C)[C@H](NC(=O)C(F)(F)F)[C@H](Oc1ccc2c(cnn2-c2ccc(=O)n(C)c2)c1)c1cc(F)cc(Cl)c1 [Example 18, N-[(1R,2S)-1-[3-chloro-5-fluorophenyl]-3-methyl-1-{[1-(1-methyl-6-oxo-1,6-dihydropyridin-3-yl)-1H-indazol-5-yl]oxy}butan-2-yl]-2,2,2-trifluoroacetamide]
16 | 38% | 58% | 8.5 | 7.6 | CC(C)[C@H](NC(=O)C(C)(F)F)[C@H](Oc1ccc2c(cnn2-c2ccc(=O)n(C)c2)c1)c1cc(F)cc(Cl)c1 [Example 19, N-[(1R,2S)-1-(3-chloro-5-fluorophenyl)-3-methyl-1-{[1-(1-methyl-6-oxo-1,6-dihydropyridin-3-yl)-1H-indazol-5-yl]oxy}butan-2-yl]-2,2-difluoropropanamide]
17 | 43% | 66% | 8.3 | 7.3 | CC(C)[C@H](NC(=O)C(C)(F)F)[C@H](Oc1ccc2c(cnn2-c2ccc(=O)n(C)c2)c1)c1ccc(Cl)c(F)c1 [Example 20, N-[(1R,2S)-1-(4-chloro-3-fluorophenyl)-3-methyl-1-{[1-(1-methyl-6-oxo-1,6-dihydropyridin-3-yl)-1H-indazol-5-yl]oxy}butan-2-yl]-2,2-difluoropropanamide]
